Measurements reported in ChEMBL document CHEMBL1201862, “PubChem BioAssay data set” (2004).
Activity calls are given as the source filed them.

Key:
[1] = target: Metabotropic glutamate receptor 7 (Homo sapiens, UniProt Q14831); assay: mGlu7 positive allosteric modulators, dose response, cell-based, calcium mobilization, Galpha15 (AID 743384); assay type: functional
[2] = target: Peroxisome proliferator-activated receptor gamma/Nuclear receptor corepressor 2 (Homo sapiens, UniProt P37231+Q9Y618); assay: Counterscreen for NR2E3 inverse agonists: TR-FRET-based biochemical high throughput dose response assay to identify inverse agonists of the interaction between peroxisome proliferator-activated receptor gamma (PPARg) and nuclear receptor co-repressor 2 (NCOR2).; assay type: functional
[3] = target: Photoreceptor-specific nuclear receptor (Homo sapiens, UniProt Q9Y5X4); assay: NR2E3 inverse agonists, dose response, biochemical, TR-FRET (AID 463256); assay type: functional
[4] = target: Galanin receptor type 2 (Homo sapiens, UniProt O43603); assay: Dose Response cell-based high-throughput screening assay to identify antagonists of galanin receptor 2 (GALR2). [Related pubchem assays: 828, 866 ]; assay type: functional
[5] = cells; conditions: HEK293
[6] = target: 14-3-3 protein gamma (Homo sapiens, UniProt P61981); assay: modulators of 14-3-3 gamma client binding – dose response (AID 711); assay type: functional
[7] = target: Troponin, cardiac muscle (Homo sapiens, UniProt P19429+P45379+P63316); assay: Fluorescence-based biochemical high throughput dose response assay for activators of the calcium sensitivity of cardiac Regulated Thin Filaments (RTF). [Related pubchem assays (depositor defined):AID493008, AID493018, AID504382, AID504383]; assay type: protein-complex assay
[8] = target: T1, Fibrinogen beta chain (Homo sapiens, UniProt P02675); assay: Fluorescence polarization-based biochemical high throughput dose response assay to identify inhibitors that disrupt the binding of a cyclic peptide (Tn6) to the fibrin proteolytic product D-Dimer and fragment E complex [DD(E )].
[9] = target: T1, Fibrinogen beta chain; assay: Fluorescence polarization-based biochemical high throughput dose response assay to identify inhibitors that disrupt the binding of a cyclic peptide (Tn7) to the fibrin proteolytic product D-Dimer and fragment E complex [DD(E )].
[10] = Late stage counterscreen results from the probe development effort to identify activators of signal transducer and activator of transcription 1 (STAT1): luminescence-based cell-based dose response assay to identify cytotoxic compounds.; assay type: functional
[11] = target: T2, Low molecular weight phosphotyrosine protein phosphatase (Homo sapiens, UniProt P24666); assay: LMPTP phosphatase inhibitors, dose response, biochemical, OMFP substrate, fluorescence intensity, set 2 (AID 743307); assay type: functional
T2 sequence (P24666 whole entry): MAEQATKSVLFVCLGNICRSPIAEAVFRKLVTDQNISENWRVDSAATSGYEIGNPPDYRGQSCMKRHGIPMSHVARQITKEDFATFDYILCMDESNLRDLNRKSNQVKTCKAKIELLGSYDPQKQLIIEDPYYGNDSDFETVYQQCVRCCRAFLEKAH

[12] = target: T2, Low molecular weight phosphotyrosine protein phosphatase; assay: LMPTP phosphatase inhibitors, colorimetric pNPP readout, dose response, orthogonal assay, biochemical, absorbance, pNPP substrate, LMPTP-A isoform, set 2 (AID 743308); assay type: functional
[13] = M. tuberculosis growth inhibition, HTS (AID 449762); assay type: functional
[14] = target: Luciferin 4-monooxygenase (Photinus pyralis, UniProt P08659); assay: Counter Screen for Luciferase-based Assay Positives. [Related pubchem assays: 620, 618, 411 ]
[15] = target: Protein-tyrosine kinase 2-beta (Homo sapiens, UniProt Q14289);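 also: potency of inhibitors of PYK2 kinase phosphorylation of poly-GT substrate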
[16] = tested on: HT-1080; assay: cytotoxicity in HT1080 fibrosarcoma cells, cell-based, fluorescence readout (AID 620); assay type: functional; conditions: Homo sapiens
[17] = target: T3, Estrogen receptor (Homo sapiens, UniProt P03372); assay: potentiators of ERα–SRC-1 coactivator binding, dose response, biochemical, TR-FRET, ERα LBD (AID 737)
T3 sequence (P03372 whole entry): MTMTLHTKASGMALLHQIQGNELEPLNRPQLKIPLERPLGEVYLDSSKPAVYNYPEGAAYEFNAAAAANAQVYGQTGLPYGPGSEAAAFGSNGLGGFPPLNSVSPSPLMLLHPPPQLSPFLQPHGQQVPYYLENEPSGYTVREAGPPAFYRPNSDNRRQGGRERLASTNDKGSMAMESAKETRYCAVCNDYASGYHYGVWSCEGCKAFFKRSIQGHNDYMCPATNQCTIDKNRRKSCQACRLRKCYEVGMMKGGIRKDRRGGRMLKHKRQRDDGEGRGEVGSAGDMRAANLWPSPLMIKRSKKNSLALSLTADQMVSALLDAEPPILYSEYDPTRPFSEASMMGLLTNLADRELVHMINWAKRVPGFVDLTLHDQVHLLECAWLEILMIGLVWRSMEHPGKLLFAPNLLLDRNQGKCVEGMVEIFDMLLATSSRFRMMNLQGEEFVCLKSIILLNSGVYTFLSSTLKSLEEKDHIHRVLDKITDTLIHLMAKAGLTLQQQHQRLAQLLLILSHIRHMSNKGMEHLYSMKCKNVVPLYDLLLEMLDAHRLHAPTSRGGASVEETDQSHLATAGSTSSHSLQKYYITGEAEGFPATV

[18] = Luminescence-based cell-based high throughput dose response assay to identify activators of the DAF-12 from the parasite S. stercoralis (ssDAF-12).; assay type: functional
[19] = target: T4, Oxysterols receptor LXR-beta (Homo sapiens, UniProt P55055); assay: LXR agonists, Gal4 luciferase reporter, dose response, counter-screen for ssDAF-12 agonist project, cell-based, luminescence, HEK293, S. stercoralis campaign (AID 720737); assay type: functional; conditions: read-out: IC50 (the source's name)
T4 sequence (P55055 whole entry): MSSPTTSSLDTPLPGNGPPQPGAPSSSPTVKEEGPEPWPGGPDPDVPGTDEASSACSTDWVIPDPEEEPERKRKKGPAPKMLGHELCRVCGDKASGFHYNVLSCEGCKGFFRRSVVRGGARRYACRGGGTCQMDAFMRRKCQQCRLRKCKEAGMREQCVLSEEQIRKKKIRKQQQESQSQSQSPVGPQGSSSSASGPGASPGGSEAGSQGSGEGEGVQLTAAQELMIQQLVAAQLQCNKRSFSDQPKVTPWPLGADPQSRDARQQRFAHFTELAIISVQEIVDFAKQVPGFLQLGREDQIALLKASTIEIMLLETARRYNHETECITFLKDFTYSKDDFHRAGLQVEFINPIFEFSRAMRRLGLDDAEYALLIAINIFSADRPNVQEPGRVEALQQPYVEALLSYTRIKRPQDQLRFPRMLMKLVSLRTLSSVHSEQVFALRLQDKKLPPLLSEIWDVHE

[20] = target: T4, Oxysterols receptor LXR-beta; assay type: functional, cell-based
[21] = cells
[22] = HeLa 2N DNA content increase, dose response, cell-based, IC50 (AID 1117349); assay type: functional
[23] = HeLa 4N DNA content increase, dose response, cell-based, IC50 (AID 1117351); assay type: functional
[24] = growth suppression of PTEN-null colon cells, dose response, cell-based, HCT116 PTEN knockout (AID 1047); assay type: functional;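 also: HCT116 colon tumor cells with PTEN knocked out; cells exposed to compound for 60 hours before readout; potency for loss of cell viability measured by luminescence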
[25] = growth suppression of beta-catenin-knockout colon cells, dose response, cell-based, HCT116, human colon tumor (AID 1045); assay type: functional;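 also: HCT116 colon tumor cells with beta catenin knocked out; cells exposed to compound for 60 hours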
[26] = target: Heat shock protein HSP 90-alpha (Homo sapiens, UniProt P07900); assay type: functional, organism-based
[27] = Concentration-dependent survival of SW480 colon cancer line, luminescence detection with CellTiter-Glo, half-maximal inhibitory concentration (AID 1117338); assay type: functional
[28] = RKO cell viability reduction, dose response, CellTiter-Glo luminescence (AID 1117322); assay type: functional
[29] = cytotoxicity toward HCT116 cells – cell-based, CellTiter-Glo luminescence, IC50, dose response (AID 1117332); assay type: functional; conditions: HCT-116
[30] = SNU-C1 cell viability reduction, dose response, CellTiter-Glo luminescence (AID 1117323); assay type: functional, cell-based
[31] = half-maximal inhibitory concentration for glucagon-like peptide-1 release, STC-1 cell line, dose-response (AID 1117345); assay type: functional, cell-based
[32] = cytotoxicity toward Colo320 cells – cell-based, CellTiter-Glo luminescence, IC50, dose response (AID 1117334); assay type: functional; conditions: COLO 320
[33] = cytotoxicity toward HT-29 cells – cell-based, CellTiter-Glo luminescence, IC50, dose response (AID 1117330); assay type: functional
[34] = CellTiter-Glo luminescent dose response of DLD-1 viability loss (AID 1117352); assay type: functional
[35] = Glucagon-like peptide 1 release potency, NCI-H716 cell line, dose-response, half-maximal inhibitory concentration (AID 1117344); assay type: functional, cell-based
[36] = tested on: Streptococcus sp. 'group A'; assay: growth inhibition of control SK(-) GAS strain, dose response, counter-screen for streptokinase expression inhibitor project, luminescence, kanamycin, BacTiterGlo, confirmation (AID 1900); assay type: functional, organism-based
[37] = target: Voltage-gated inwardly rectifying potassium channel KCNH2 (Homo sapiens, UniProt Q12809); assay: hERG protection from proarrhythmic block, potency, dose response, cell-based, thallium flux (AID 2121); assay type: ADME
[38] = tested on: Streptococcus; assay: Group A Streptococcus viability loss, dose response, counter-screen for streptokinase expression inhibitor project, luminescence, BacTiterGlo (AID 1915); assay type: functional, organism-based;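 also: potency for reduction of bacterial viability or growth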
[39] = target: Tyrosyl-DNA phosphodiesterase 2 (Homo sapiens, UniProt O95551); assay: human TDP2 enzyme inhibitors, dose response, biochemical, epi absorbance, IC50 (AID 743297)
[40] = target: Induced myeloid leukemia cell differentiation protein Mcl-1 (Homo sapiens, UniProt Q07820); assay type: functional
[41] = target: Genome polyprotein (dengue virus type 2, UniProt P29990); assay: Dengue-2 NS5 methyltransferase inhibitors, primary screen, biochemical, confirmation dose response (AID 588689); assay type: functional
[42] = target: T5, Caspase-6 (Homo sapiens, UniProt P55212); assay: human caspase-6 inhibitors, dose response, biochemical, VEID-R110 fluorescence, cherry-pick (AID 720632)
T5 sequence (P55212 whole entry): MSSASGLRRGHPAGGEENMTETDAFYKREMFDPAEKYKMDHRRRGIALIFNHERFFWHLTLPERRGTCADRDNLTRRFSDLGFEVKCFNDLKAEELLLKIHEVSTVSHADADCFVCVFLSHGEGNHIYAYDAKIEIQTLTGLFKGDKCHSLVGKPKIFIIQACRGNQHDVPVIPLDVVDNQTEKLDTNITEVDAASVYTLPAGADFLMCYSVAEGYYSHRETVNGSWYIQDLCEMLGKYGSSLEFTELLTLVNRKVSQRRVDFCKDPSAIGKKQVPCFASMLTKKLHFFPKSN

[43] = target: Glutathione-S-transferase (Schistosoma japonicum, UniProt Q26513); assay: biotin-GST/anti-GST TR-FRET signal inhibitors, dose response, artefact control for Vif-APOBEC3G degradation inhibitor project, biochemical (AID 1117362); assay type: functional
[44] = target: RNA-editing ligase 1, mitochondrial (Trypanosoma brucei brucei, UniProt P86926); assay: TbREL1 ligase inhibitors, dose response, biochemical, fluorescence, Trypanosoma brucei (AID 1117295); assay type: functional
[45] = Dose-response inhibition of insulin secretion in a rat insulinoma line at 5 mM glucose (AID 1117331); assay type: functional, cell-based; conditions: INS-1E
[46] = P. falciparum Dd2 growth inhibitors, dose response, SYBR Green, dry powder samples, set 4 (AID 1159572); assay type: functional, cell-based

Tyrosyl-DNA phosphodiesterase 2, sequence (O95551 whole entry): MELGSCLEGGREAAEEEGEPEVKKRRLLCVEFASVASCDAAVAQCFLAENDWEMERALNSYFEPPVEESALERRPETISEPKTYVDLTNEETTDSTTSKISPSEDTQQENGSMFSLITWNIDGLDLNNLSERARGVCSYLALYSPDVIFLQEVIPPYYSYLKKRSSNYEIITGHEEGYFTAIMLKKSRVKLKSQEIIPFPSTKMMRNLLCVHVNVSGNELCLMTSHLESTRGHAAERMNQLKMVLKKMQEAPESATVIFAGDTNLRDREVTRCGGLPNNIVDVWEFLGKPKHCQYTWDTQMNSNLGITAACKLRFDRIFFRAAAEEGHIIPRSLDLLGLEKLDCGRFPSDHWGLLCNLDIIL
T1 sequence (P02675 whole entry, the tested form may be a part): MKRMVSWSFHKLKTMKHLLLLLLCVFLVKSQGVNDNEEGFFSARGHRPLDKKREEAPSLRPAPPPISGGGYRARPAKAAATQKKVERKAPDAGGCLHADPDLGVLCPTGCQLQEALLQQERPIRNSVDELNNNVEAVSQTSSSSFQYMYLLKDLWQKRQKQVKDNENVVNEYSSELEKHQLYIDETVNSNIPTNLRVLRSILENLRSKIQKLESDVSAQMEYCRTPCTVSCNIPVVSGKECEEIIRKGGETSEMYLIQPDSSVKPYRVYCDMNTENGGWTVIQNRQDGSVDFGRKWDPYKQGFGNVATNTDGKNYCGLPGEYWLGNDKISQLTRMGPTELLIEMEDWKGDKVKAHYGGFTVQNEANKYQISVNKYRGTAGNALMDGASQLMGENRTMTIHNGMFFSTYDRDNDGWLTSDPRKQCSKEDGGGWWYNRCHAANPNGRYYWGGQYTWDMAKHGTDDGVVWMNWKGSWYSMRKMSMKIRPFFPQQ
Genome polyprotein, sequence (P29990 2492-3391 limits assumed): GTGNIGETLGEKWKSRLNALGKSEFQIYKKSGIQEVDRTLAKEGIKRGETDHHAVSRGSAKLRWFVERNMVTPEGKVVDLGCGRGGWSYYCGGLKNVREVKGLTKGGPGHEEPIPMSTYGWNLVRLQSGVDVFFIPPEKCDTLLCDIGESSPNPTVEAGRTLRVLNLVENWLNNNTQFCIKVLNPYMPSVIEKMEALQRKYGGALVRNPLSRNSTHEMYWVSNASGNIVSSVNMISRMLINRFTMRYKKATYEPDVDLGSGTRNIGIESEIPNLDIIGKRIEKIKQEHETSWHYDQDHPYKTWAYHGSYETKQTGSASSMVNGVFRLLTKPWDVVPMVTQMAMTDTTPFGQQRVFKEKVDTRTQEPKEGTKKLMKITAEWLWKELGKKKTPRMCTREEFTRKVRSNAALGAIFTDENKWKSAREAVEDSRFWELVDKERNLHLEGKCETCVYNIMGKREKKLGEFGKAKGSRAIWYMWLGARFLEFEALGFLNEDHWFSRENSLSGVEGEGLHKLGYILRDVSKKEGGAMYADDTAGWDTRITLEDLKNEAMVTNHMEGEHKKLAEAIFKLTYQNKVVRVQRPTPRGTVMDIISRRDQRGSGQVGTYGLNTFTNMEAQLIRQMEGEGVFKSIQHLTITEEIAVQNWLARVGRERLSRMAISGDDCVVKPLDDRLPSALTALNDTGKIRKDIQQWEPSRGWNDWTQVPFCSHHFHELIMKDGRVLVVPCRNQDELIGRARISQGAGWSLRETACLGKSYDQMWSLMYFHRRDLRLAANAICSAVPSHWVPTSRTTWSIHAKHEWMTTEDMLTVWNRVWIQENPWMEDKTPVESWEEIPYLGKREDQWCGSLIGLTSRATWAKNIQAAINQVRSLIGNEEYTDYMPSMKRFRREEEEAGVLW
Galanin receptor type 2, sequence (O43603 whole entry): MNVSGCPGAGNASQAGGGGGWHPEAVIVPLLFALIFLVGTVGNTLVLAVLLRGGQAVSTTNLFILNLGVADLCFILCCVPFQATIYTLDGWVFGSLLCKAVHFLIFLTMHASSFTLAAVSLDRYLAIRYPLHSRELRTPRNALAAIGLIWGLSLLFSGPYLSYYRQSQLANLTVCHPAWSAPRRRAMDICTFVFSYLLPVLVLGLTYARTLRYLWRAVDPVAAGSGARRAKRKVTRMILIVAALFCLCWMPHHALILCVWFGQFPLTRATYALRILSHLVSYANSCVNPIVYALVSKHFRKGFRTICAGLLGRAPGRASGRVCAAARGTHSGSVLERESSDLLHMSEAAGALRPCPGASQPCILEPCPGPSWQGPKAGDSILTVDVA
Induced myeloid leukemia cell differentiation protein Mcl-1, sequence (Q07820 whole entry): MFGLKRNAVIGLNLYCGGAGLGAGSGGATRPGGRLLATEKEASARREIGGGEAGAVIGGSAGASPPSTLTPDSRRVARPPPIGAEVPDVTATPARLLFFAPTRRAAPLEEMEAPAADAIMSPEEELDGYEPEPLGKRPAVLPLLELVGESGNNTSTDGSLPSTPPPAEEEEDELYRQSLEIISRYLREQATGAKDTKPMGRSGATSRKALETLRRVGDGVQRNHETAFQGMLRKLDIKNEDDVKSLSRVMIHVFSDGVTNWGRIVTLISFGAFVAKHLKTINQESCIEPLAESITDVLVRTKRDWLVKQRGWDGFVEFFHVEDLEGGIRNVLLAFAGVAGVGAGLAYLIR
14-3-3 protein gamma, sequence (P61981 whole entry): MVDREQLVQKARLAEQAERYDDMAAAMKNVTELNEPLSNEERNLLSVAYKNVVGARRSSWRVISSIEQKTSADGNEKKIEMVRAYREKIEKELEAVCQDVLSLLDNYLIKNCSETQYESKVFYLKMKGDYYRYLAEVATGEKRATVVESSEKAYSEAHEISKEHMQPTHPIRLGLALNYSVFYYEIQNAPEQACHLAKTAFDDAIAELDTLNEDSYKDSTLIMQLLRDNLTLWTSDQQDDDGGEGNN
Luciferin 4-monooxygenase, sequence (P08659 whole entry): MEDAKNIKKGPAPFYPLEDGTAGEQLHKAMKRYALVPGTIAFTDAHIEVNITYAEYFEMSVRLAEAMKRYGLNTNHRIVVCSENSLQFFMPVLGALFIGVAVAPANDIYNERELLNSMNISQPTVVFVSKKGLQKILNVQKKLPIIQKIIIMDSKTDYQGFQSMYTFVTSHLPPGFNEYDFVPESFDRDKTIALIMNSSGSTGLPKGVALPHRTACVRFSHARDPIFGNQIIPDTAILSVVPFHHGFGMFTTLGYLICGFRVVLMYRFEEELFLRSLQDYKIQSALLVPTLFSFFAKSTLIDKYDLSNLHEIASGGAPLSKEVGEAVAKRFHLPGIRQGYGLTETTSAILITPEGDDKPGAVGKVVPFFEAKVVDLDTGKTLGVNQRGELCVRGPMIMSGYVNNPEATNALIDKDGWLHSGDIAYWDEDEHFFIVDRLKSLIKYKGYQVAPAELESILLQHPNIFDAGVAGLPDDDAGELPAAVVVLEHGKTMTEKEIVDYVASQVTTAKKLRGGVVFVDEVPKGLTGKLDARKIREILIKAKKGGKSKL
Glutathione-S-transferase, sequence (Q26513 whole entry): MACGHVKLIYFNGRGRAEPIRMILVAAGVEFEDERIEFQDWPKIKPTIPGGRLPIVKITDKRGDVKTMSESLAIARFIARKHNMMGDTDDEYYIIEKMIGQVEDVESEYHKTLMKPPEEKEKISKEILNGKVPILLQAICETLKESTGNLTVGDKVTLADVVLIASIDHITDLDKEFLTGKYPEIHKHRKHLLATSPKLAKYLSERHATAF
Metabotropic glutamate receptor 7, sequence (Q14831 whole entry): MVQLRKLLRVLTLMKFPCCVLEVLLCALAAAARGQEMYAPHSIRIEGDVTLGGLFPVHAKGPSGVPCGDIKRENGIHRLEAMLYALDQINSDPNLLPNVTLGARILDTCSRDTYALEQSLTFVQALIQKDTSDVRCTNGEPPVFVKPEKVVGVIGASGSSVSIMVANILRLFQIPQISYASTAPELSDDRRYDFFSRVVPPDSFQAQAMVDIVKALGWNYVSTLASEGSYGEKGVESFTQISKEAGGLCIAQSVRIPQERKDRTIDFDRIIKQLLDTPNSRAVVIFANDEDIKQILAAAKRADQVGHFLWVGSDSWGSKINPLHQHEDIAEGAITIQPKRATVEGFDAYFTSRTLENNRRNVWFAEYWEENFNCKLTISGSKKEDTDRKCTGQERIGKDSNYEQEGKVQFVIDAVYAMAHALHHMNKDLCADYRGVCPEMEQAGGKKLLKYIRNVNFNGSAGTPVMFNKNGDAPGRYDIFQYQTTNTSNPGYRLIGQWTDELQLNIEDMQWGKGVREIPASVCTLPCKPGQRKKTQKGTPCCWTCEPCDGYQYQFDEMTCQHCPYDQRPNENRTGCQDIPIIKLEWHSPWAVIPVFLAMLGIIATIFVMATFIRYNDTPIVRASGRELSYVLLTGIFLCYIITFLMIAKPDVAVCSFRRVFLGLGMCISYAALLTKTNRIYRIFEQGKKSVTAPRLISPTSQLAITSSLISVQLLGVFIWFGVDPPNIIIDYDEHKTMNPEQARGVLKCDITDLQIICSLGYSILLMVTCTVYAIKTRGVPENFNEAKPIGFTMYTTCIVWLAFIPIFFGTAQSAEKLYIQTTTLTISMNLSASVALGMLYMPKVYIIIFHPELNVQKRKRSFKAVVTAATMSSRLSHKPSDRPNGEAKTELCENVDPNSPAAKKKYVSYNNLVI
Photoreceptor-specific nuclear receptor, sequence (Q9Y5X4 whole entry): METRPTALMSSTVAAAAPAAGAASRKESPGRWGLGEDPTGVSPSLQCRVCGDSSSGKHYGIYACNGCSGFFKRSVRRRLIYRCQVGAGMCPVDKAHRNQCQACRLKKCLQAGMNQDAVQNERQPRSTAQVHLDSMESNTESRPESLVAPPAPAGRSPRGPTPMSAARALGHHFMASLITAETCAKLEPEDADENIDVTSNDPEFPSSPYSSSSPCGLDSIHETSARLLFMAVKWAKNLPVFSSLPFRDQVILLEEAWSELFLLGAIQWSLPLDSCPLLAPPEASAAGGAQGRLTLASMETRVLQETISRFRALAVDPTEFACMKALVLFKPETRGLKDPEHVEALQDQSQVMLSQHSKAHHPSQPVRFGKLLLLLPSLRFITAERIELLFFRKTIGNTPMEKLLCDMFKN

CC(=O)Nc1ccc(SCC(=O)c2cc(C)n(-c3ccc(S(N)(=O)=O)cc3)c2C)cc1
EC50 [1]: 10 µM (active)

COc1ccc(NC(=O)CSc2nnc(-c3cccs3)n2-c2ccccc2)cc1
IC50 [2]: 2.16 µM (active)
IC50 [3]: 2.09 µM (active)

c1ccc2c3nc[nH]c(NCC4CCCO4)c-3nc2c1 (configuration not stated)
IC50 [4]: > 42 µM (not active)

COc1cc(C)ccc1OCCn1cnc2ccccc21
AC50 [5]: > 52 µM (inactive)

COc1ncnc2c1N=C1CC(C)(C)CC(N)=C1S2
IC50 [6]: 30 µM (active)
EC50 [7]: > 7.94 µM (active)

O=C(COC(=O)c1cc(-c2cccc3ccccc23)nc2ccccc12)NC1CCS(=O)(=O)C1 (configuration not stated)
IC50 [8]: > 83.3 µM (inactive)
IC50 [9]: > 83.3 µM (inactive)

Cc1nnc(SCC(=O)Nc2ccc(-c3nc4ccccc4s3)cc2)s1
IC50 [10]: > 55.7 µM (not active)

c1ccc(-c2cc(SCCCN3CCCCC3)c3ccccc3n2)cc1
IC50 [11]: 66.9 µM (inactive)
IC50 [12]: > 80 µM (inactive)

Cn1nnc(NC(=S)NC(=O)c2ccc(-c3ccc(Br)cc3)o2)n1
IC50 [13]: > 100 µM (active)

O=C1C(c2ccnc3ccccc23)=C(O)c2ccccc21
EC50 [14]: 0.78 µM (active)
IC50 [15]: 3.11 µM (active)
EC50 [16]: > 50 µM (not active)
EC50 [17]: 6.74 µM (active)
IC50 [18]: > 67.5 µM (inactive)
EC50 [19]: > 67.5 µM (inactive)
EC50 [20]: > 67.5 µM (inactive)
EC50 [21]: > 67.5 µM (inactive)

CC(C)(C)C(=O)OCOP(=O)(COCCn1cnc2c(N)ncnc21)OCOC(=O)C(C)(C)C [ADEFOVIR DIPIVOXIL]
IC50 [22]: > 10 µM (inactive)
IC50 [23]: > 10 µM (inactive)

Oc1ccc(Cl)cc1Cc1cc(Cl)ccc1O [DICHLOROPHEN]
EC50 [24]: 15.7 µM (active)
EC50 [25]: 16.4 µM (active)
AC50 [26]: 8 µM (active)
IC50 [27]: 2.5 µM (active)
IC50 [28]: 1.93 µM (active)
IC50 [29]: 1.55 µM (active)
IC50 [30]: 0.546 µM (active)
IC50 [31]: > 40 µM (inactive)
IC50 [32]: 1.21 µM (active)
IC50 [33]: 4.69 µM (active)
IC50 [34]: 0.862 µM (active)
IC50 [35]: 15.6 µM (inactive)

CCOC(=O)C1=C(Cc2ccc(C)cc2)C(=O)c2ccccc2C1=O
EC50 [36]: 6.54 µM (active)
EC50 [37]: 4.1 µM (active)
EC50 [38]: 6.91 µM (active)
IC50 [39]: > 128 µM (inactive)

O=C(NCCCO)c1ccc2nc(-c3ccco3)c(-c3ccco3)nc2c1
IC50 [40]: 3.45 µM (not active)
IC50 [41]: 86.2 µM (active)
AC50 [42]: 13.1 µM (active)
IC50 [39]: > 128 µM (inactive)
IC50 [43]: > 100 µM (active)
IC50 [44]: 28.4 µM (inactive)

Nc1cc(N2CCCCC2)nc(N)[n+]1[O-] [MINOXIDIL]
IC50 [45]: > 33.3 µM (inactive)

COc1ccc2c3c([nH]c2c1)[C@H](CO)N(C(C)=O)CC31CCN(C(C)=O)CC1
AC50 [46]: 16.5 µM (active)
